The values that follow come from ChEMBL document CHEMBL1201862, “PubChem BioAssay data set” (2004).

Molecules are shown by their SMILES.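 All cell lines were grown in 96-well plates and treated with compound for 48 hours. The concentration for 50% growth inhibition is given as GI50.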 Active and inactive are the calls of the source. No stated cut-off is given here; in the data, active = GI50 up to about 1.1 µM and inactive = higher.

Test systems include NCI-H23; Malme-3M; OVCAR-3; CCRF-CEM; HCT-15; UO-31; MDA-N; SNB-19; TK-10; T47D; SK-MEL-5; NCI-H460; 786-0; SN12C; Hs-578T; HOP-62; EKVX; SW-620; RXF 393.
Assay in all cases: NCI anticancer screen, dose series, 48 h

Take `Cc1n[n+](CC(=O)c2ccccc2)c2sc(N)nn12`: the GI50 in the assay with NCI-H23 is > 100 µM (inactive); with Malme-3M, > 100 µM (inactive); in the assay on OVCAR-3 it was > 100 µM (inactive); with CCRF-CEM it was > 100 µM (inactive); with HCT-15, more than 100 µM; in the assay on UO-31 it was > 100 µM (inactive). Moreover, the GI50 in the assay on MDA-N is > 100 µM (inactive); in the assay on SNB-19, > 100 µM (inactive); with TK-10, > 100 µM (inactive); in the assay with T47D it was > 100 µM (inactive); with SK-MEL-5, 72.3 µM (inactive); in the assay on NCI-H460, > 100 µM (inactive). Further, the GI50 with 786-0, with SN12C, in the assay with Hs-578T, in the assay with HOP-62, in the assay with EKVX and in the assay on SW-620 was > 100 µM (inactive) each time. The GI50 with RXF 393 was > 100 µM (inactive).
As to `O=C1OC(c2ccccc2)=N/C1=C\c1ccc(N(CCCl)CCCl)cc1`, the GI50 in the assay with NCI-H23 is > 57.8 µM (inactive); with Malme-3M it was > 100 µM (inactive); with OVCAR-3 it was > 76.2 µM (inactive); in the assay on CCRF-CEM it was 26 µM (inactive); in the assay on HCT-15, more than 100 µM; in the assay on UO-31 it was > 78.3 µM (inactive). The GI50 with MDA-N was > 100 µM (inactive); in the assay with SNB-19, > 100 µM (inactive); in the assay with TK-10, > 100 µM (inactive); with T47D, 14.5 µM (inactive); in the assay on SK-MEL-5, > 100 µM (inactive); in the assay on NCI-H460, > 77.4 µM (inactive). Also, the GI50 was > 94 µM (inactive) with 786-0; > 92 µM (inactive) in the assay on SN12C; > 100 µM (inactive) with Hs-578T; > 89.5 µM (inactive) in the assay with HOP-62; > 100 µM (inactive) with EKVX; > 100 µM (inactive) in the assay on SW-620. Moreover, the GI50 in the assay with RXF 393 is 42 µM (inactive).
On to `COc1cc(Oc2nc3cc(F)c(F)cc3nc2-c2ccccc2)cc(OC)c1OC`, for which the GI50 was > 100 µM (inactive) in the assay on NCI-H23; 32 µM (inactive) with Malme-3M; > 100 µM (inactive) in the assay with OVCAR-3; > 100 µM (inactive) in the assay with CCRF-CEM; 51.9 µM in the assay on HCT-15; 73.6 µM (inactive) with UO-31. Moreover, the GI50 was > 100 µM (inactive) in the assay with MDA-N; 34.2 µM (inactive) in the assay on SNB-19; 68.2 µM (inactive) in the assay with TK-10; > 100 µM (inactive) in the assay with T47D; 28.1 µM (inactive) in the assay on SK-MEL-5; 63.8 µM (inactive) in the assay on NCI-H460. The GI50 in the assay with 786-0 is 30.5 µM (inactive); in the assay with SN12C, > 100 µM (inactive); in the assay on Hs-578T it was 38.7 µM (inactive); in the assay with HOP-62, 82 µM (inactive); with EKVX it was 97.7 µM (inactive); in the assay with SW-620, > 100 µM (inactive). The GI50 in the assay on RXF 393 is > 100 µM (inactive).
With `CC1(CCCC2(C)CCNC2=O)OCCO1` (stereo unspecified), the GI50 was > 10 µM (inactive) with NCI-H23; > 10 µM (inactive) in the assay with Malme-3M; > 10 µM (inactive) in the assay on OVCAR-3; > 10 µM (inactive) with CCRF-CEM; more than 10 µM in the assay on HCT-15; > 10 µM (inactive) in the assay on UO-31. In addition, the GI50 in the assay with MDA-N, in the assay on SNB-19, with TK-10, with T47D, in the assay with SK-MEL-5 and in the assay on NCI-H460 was > 10 µM (inactive) each time. Moreover, the GI50 in the assay with 786-0, in the assay with SN12C, in the assay with Hs-578T, in the assay on HOP-62, in the assay on EKVX and in the assay on SW-620 was > 10 µM (inactive) in each case. Further, in the assay on RXF 393, the GI50 was > 10 µM (inactive).
